Data reported in ChEMBL document CHEMBL1201862, “PubChem BioAssay data set” (2004).
Activity calls are given as the source filed them. For most assays here, no stated cut-off is given here; in the data, actives have a measured EC50 and inactives only a lower limit.

Tests used:
[1] = target: T1, Heat shock factor protein 1 (Mus musculus, UniProt P38532); assay: HSF1 potentiators in luciferase reporter cells, confirmation, cell-based, NIH3T3, luminescence, dose retest (AID 435004); type: functional;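 further: stress induced by proteasome inhibitor MG132 added 30 min after compound; luciferase reporter driven by HSF1 response element in NIH3T3 cells; actives raise luminescence as potentiators of the MG132 stress response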
T1 sequence (P38532 whole entry): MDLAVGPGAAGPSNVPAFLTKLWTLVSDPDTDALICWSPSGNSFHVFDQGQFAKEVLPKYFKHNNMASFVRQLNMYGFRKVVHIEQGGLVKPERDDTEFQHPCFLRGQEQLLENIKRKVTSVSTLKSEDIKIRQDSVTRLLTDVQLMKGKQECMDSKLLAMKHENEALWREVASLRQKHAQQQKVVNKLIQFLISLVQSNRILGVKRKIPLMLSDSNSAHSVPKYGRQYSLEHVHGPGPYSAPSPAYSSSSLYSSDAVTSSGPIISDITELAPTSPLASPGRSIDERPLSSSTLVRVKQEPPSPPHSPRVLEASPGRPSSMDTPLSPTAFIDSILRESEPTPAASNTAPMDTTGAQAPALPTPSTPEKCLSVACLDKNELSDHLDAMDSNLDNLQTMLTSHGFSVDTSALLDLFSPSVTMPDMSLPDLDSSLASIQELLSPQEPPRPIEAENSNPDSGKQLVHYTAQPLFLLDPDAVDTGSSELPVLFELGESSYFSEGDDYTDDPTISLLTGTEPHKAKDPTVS

H9c2 = assay: cells; type: functional, cell-based; details: Rattus norvegicus, H9c2, Myocardium;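 further: confirmatory concentration-response retest of ultra-high-throughput screening hits for modulation of myocardial damage; cell death induced by hydrogen peroxide oxidative stress; compound pretreatment for 60 min then peroxide exposure for 2 h; potency is for protecting the cells against peroxide damage rather than for killing them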
[2] = target: T2, Replicative DNA helicase DnaB (Mycobacterium tuberculosis, UniProt P9WMR3); assay: DnaB intein splicing inhibitors, dose response, biochemical, cell-free fluorescence (AID 449749); type: functional
T2 sequence (P9WMR3 whole entry): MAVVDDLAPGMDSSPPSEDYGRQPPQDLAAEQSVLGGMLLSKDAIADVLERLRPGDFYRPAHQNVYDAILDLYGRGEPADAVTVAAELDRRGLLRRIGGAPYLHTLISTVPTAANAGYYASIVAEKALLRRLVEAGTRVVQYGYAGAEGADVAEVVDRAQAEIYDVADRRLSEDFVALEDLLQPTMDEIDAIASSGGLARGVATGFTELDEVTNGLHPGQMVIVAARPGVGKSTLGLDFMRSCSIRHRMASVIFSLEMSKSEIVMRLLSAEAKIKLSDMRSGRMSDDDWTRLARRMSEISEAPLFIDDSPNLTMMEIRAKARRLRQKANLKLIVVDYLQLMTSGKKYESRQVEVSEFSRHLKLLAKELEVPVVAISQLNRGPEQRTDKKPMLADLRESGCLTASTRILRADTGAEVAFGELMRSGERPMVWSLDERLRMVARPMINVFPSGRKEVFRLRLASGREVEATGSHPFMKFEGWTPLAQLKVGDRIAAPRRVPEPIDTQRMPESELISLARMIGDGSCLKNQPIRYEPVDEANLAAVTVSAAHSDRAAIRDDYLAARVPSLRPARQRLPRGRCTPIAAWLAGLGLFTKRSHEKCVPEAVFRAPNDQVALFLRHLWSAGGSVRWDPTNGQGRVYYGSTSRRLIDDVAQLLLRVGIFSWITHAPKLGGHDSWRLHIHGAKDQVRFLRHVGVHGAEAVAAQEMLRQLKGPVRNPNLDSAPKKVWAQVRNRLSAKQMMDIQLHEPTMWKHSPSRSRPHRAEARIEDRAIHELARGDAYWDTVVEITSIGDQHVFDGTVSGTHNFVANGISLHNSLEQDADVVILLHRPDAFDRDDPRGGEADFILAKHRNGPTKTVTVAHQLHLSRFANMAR

Protein RecA = target: T3, Protein RecA (Mycobacterium tuberculosis, UniProt P9WHJ3); assay: Fluorescence Cell-Free Homogeneous Dose Retest to Identify Inhibitors of RecA-Intein Splicing Activity. [Related pubchem assays (depositor defined):AID2097, AID2223, AID489010, AID492950]; type: functional
T3 sequence (P9WHJ3 whole entry): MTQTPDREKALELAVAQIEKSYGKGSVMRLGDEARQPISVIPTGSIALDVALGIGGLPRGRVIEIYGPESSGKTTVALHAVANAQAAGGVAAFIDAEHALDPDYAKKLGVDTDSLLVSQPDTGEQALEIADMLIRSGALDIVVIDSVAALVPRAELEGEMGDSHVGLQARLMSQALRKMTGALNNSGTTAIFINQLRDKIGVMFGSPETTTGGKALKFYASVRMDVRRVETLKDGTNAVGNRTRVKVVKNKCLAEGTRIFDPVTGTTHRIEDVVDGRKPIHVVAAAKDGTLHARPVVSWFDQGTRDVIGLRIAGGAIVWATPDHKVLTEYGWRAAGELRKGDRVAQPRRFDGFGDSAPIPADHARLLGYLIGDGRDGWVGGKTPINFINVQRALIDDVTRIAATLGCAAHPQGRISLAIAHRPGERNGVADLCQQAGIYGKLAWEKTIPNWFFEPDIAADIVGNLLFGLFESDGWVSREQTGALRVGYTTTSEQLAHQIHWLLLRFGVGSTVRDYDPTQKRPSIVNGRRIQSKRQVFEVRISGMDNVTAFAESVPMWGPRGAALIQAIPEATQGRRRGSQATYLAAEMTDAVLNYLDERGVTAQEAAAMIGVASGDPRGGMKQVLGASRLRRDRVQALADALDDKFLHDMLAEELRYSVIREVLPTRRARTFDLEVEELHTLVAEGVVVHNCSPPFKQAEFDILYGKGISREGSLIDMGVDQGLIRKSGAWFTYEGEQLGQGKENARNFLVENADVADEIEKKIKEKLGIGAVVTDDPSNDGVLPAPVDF

[3] = system: Streptococcus sp. 'group A'; assay: growth inhibition of control SK(-) GAS strain, dose response, counter-screen for streptokinase expression inhibitor project, luminescence, kanamycin, BacTiterGlo, confirmation (AID 1900); type: functional, organism-based
Streptokinase A = target: T4, Streptokinase A (Streptococcus pyogenes serotype M1, UniProt P10520); assay: S. pyogenes streptokinase expression inhibitors, potency, dose response, plasminogen activation absorbance, OD405 (AID 1914); type: functional, Streptococcus pyogenes M1 GAS;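 further: secreted streptokinase activity via plasminogen activation per viability signal from cell pellet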
T4 sequence (P10520 whole entry): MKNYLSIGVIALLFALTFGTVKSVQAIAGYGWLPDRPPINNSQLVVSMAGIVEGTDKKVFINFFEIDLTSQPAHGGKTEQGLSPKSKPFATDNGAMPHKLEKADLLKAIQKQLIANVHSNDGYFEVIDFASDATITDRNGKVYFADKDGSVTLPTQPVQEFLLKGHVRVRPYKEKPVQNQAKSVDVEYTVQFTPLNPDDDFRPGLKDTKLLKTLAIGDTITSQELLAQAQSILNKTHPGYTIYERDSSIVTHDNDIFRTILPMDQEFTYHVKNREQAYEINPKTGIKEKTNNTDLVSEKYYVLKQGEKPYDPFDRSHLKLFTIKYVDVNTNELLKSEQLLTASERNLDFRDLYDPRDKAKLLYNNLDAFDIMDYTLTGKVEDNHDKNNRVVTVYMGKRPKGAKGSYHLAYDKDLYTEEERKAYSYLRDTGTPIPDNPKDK

Streptococcus = assay: Group A Streptococcus viability loss, dose response, counter-screen for streptokinase expression inhibitor project, luminescence, BacTiterGlo (AID 1915); type: functional, organism-based;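 further: potency for reduction of bacterial viability or growth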

CC(=O)Oc1ccc(Cn2cnc3cc4ccccc4cc32)cc1
EC50 [1]: 44.4 µM (active)

CCN(CC)S(=O)(=O)c1ccc(N2CCOCC2)c(NC(=O)c2cc(-c3ccccn3)nc3ccccc23)c1
IC50 (H9c2): > 79 µM (inactive)

O=C(CSc1nnc(-c2c[nH]c3ccccc23)o1)c1ccccc1
EC50 [1]: > 260 µM (inactive)

COc1ccc(/C=N/NC(=O)c2cc(-c3ccc4c(c3)OCO4)[nH]n2)cc1OC
IC50 (H9c2): > 79 µM (inactive)

CC(C)(C)OC(=O)N1CCC[C@H]1c1nnc(SCC(=O)Nc2ccc(Br)cc2)o1
IC50 (H9c2): > 79 µM (inactive)

Cc1ccc(/C=C2\SC(N3CCN(C(c4ccccc4)c4ccccc4)CC3)=NC2=O)o1
AC50 [2]: > 380 µM (inactive) | EC50 (Protein RecA): 49.1 µM (active)

C[C@@H]1CN([C@@H](C)CO)C(=O)c2cc(NC(=O)Nc3ccccc3)ccc2O[C@H]1CN(C)C(=O)Nc1cccc2ccccc12
IC50 (H9c2): 13.9 µM (active)

COc1ccc(C(=O)COc2ccccc2C(N)=O)cc1
IC50 (H9c2): > 79 µM (inactive)

COC(=O)Cc1c(C)[nH]n(-c2cc(Cl)cc(Cl)c2)c1=O
AC50 [2]: 11 µM (active) | EC50 (Protein RecA): 16.9 µM (active)

COC(=O)c1ccc(Cn2c(C)c(C(=O)NCc3cccs3)sc2=O)o1
IC50 (H9c2): 12.1 µM (active)

Cc1sc2nc(C3CC3)nc(SCC(=O)N3CCc4ccccc4C3)c2c1C
EC50 [1]: 28.6 µM (active)

COc1cccc(NN=C2C(=O)NC(=S)NC2=O)c1
EC50 [1]: 9.18 µM (active)

COc1ccccc1CN1CCSCC1
AC50 [2]: 13.2 µM (active) | EC50 (Protein RecA): 5.08 µM (active)

COc1ccccc1-c1[nH]nc2c1[C@H](C)CC[C@H]2C(C)C
EC50 [3]: 10.9 µM (active) | EC50 (Streptokinase A): > 150 µM (not active) | EC50 (Streptococcus): > 150 µM (not active)

N=c1c(S(=O)(=O)c2ccc(Br)cc2)cc2c(=O)n3ccccc3nc2n1C1CCCC1
EC50 [1]: > 260 µM (inactive)

CCCc1n[nH]c2c1C1(C(=O)N(Cc3ccccc3)c3ccccc31)C(C(=O)OC)=C(N)O2 (stereo unspecified)
EC50 [1]: > 260 µM (inactive)

CC(C)C[C@H](NC(=O)c1[nH]cnc1C(=O)N[C@@H](C)C(=O)OC(C)(C)C)C(=O)OCc1ccccc1
EC50 [3]: 8.12 µM (active) | EC50 (Streptokinase A): > 150 µM (not active) | EC50 (Streptococcus): 40.9 µM (active)

CCCN(CC(=O)Nc1ccccc1C)C(=O)Cc1nnc(O)c2ccccc12
IC50 (H9c2): > 79 µM (inactive)

CN(CC1CCCO1)S(=O)(=O)c1ccc(C(=O)Nc2ccccc2F)cc1 (stereo unspecified)
EC50 [3]: > 150 µM (not active) | EC50 (Streptokinase A): > 150 µM (not active) | EC50 (Streptococcus): > 150 µM (not active)

COc1ccc(S(=O)(=O)Nc2ccncc2)c(C)c1C
EC50 [1]: > 260 µM (inactive)

CCc1nnc(NC(=O)C(NC(=O)c2ccccc2Cl)C(C)C)s1 (stereo unspecified)
EC50 [1]: > 260 µM (inactive)

COc1ccc(OC)c(Nc2nc(N)c([N+](=O)[O-])c(N3CCOCC3)n2)c1
IC50 (H9c2): 17.7 µM (active)

O=C(Nc1ccc(F)c(Cl)c1)Nc1csc2ccccc12
EC50 [3]: 6.52 µM (active) | EC50 (Streptokinase A): > 50 µM (not active) | EC50 (Streptococcus): 5.69 µM (active)

O=C1NCCCC2c3c(cc(Br)c(O)c3Br)OC12N1CCCCC1 (stereo unspecified)
AC50 [2]: 32.1 µM (active) | EC50 (Protein RecA): 5.46 µM (active)

N#Cc1cc(-c2ccccc2)cnc1Sc1ccccc1
EC50 [1]: > 260 µM (inactive)

COC(=O)[C@@H](NC(=O)NC1CCCc2ccccc21)C(C)C (stereo partly specified)
EC50 [1]: > 260 µM (inactive)

COc1ccccc1C1C(C#N)=C(N)Oc2c1c(-c1ccccc1)nn2-c1ccccc1 (stereo unspecified)
AC50 [2]: 9.85 µM (active) | EC50 (Protein RecA): 4.49 µM (active)

Fc1ccc(Nc2nc(Oc3ccccc3F)nc(N3CCCC3)n2)cc1
AC50 [2]: 3.2 µM (active) | EC50 (Protein RecA): 0.946 µM (active)

c1ccc(-c2nc(C3CCCCC3)c3ccccc3n2)cc1
EC50 [3]: 3.71 µM (active) | EC50 (Streptokinase A): 21.6 µM (active) | EC50 (Streptococcus): 25.2 µM (active)

CCOCCn1ccc2c(OCC(=O)Nc3cc(OC)ccc3OC)cccc2c1=O
IC50 (H9c2): > 79 µM (inactive)

COc1ccc(OC)c(C2C(C#N)=C(N)Oc3c2c(C)nn3-c2ccc(C)cc2)c1 (stereo unspecified)
AC50 [2]: > 380 µM (inactive) | EC50 (Protein RecA): 4.91 µM (active)

COc1ccc(C2/C=C\CN(C(=O)c3ccccc3)CC(=O)N2Cc2ccc(F)cc2)cc1 (stereo unspecified)
EC50 [3]: > 150 µM (not active) | EC50 (Streptokinase A): > 150 µM (not active) | EC50 (Streptococcus): > 150 µM (not active)
